From US12486229B2, “Indole derivative and application thereof” (SHANGHAI MEDICILON INC., priority 2020, dated 2025)

Tested on: TNBS induced ulcerative colitis in rats
Test: TNBS induced ulcerative colitis in rats
Assay type: in vivo, rat
Conditions: for Colon length / Colon weight / Colon weight/colon length / Ulcer area: 3 mg/kg oral gavage once a day for 7 days, day 8; for General anatomical view of colon, from excellent to poor: 7 days administration, SASP 360, Example 3 and Etrasimod 3, Ozanimod 10 mg/kg; for Weight: 3 mg/kg oral gavage once a day; for Drug efficacy intensity (colon weight): oral gavage for 7 consecutive days, doses as given in ranking
Protocol: Preparation of molding agent: 5 mL TNBS and 8.953 mL anhydrous ethanol and 26.741 sterilized water for injection. • TNBS comes from Dalian Meilun Biotechnology Co., Ltd. • Source of SPF male SD rats: Shanghai Slake Experimental Animal Co., Ltd. • Animal age at the beginning of the experiment: 8 to 10 weeks; • Animal weight at the beginning of the experiment: about 250 g; • Adaptation time: 5 to 7 days; • Animals were fasted (only water) for 24 hours. After inhalation anesthesia with isoflurane, all rats were perfused with 0.5 mL TNBS ethanol solution per rat (18 mg TNBS/rat) via rectum with latex hose, with the length of the hose entering the rectum of about 8 cm. After withdrawing the hose, the rats remained under isoflurane anesthesia, and kept in the inclined state of hip elevation for 15 minutes.
The rats after modeling were randomly divided into 5 groups: model group, positive control group using drug sulfasalazine (SASP, 360 mg/kg), test substance group using the compound of Example 3 (3 mg/kg), test substance group using Etrasimod (3 mg/kg), test substance group using Ozanimod (10 mg/kg).
At 3 hours after modeling, the animals in each group were administrated with medicine solution by oral gavage (Table 1), 5 mL/kg body weight (10 mL/kg in sulfasalazine group), once a day, for 7 consecutive days, and the feces of the animals and whether there is death were observed every day. On the 8th day, the animals were killed under CO2 overdose anesthesia followed by being dissected, the entire colon tissue was extracted, the contents of the colon were cleaned after longitudinal dissection along the mesenteric side, the colon was weighed and measured for its length, the area of the ulcer was measured, and the general situation was observed and photos were taken. Finally, the colon was fixed in 10% formalin, and H&E staining and histopathological analysis (inflammation, goblet cells, lesion depth, ulcer degree, crypt abscess) were performed.
Wherein, the compound of Example 3 of the invention, purity: 99.74%. • Etrasimod, prepared according to the literature method (the second isomer of Example 1.29 in WO2010/011316A1), purity: 98.47%. • Ozanimod, prepared according to the literature method (compound 86 in WO2011/060392A1), purity: 99.78%. • Sulfasalazine enteric-coated tablets, produced by Shanghai Fuda Pharmaceutical Co., Ltd., 0.25 g/tablet. Enteric coated tablets show yellow to brownish yellow after the coating is removed. • Solutol: Beijing Fengli Jingqiu Pharmaceutical Co., Ltd. • Solvent preparation: • DMSO, Solutol and 0.9% sodium chloride solution were mixed according to the volume ratio of 5:10:85 to prepare the solvent.
Preparation of compound of Example 3 and Etrasimod solution: 27 mg of test substances were taken respectively and dissolved in 45 mL of solvent to obtain corresponding test substance solution.
Ozanimod: 90 mg Ozanimod was dissolved in 45 mL solvent to obtain Ozanimod solution.
Preparation of SASP solution: six sulfasalazine enteric-coated tablets after grinding were added to 41.7 mL 0.5% CMC-Na, and then dissolved by ultrasonic to obtain SASP solution.
Due to the excipient factor of SASP drug preparation, the concentration should not be too high when suspended in 0.5% CMC-Na, otherwise the suspension was uneven and the mobility was poor, so the dose volume of SASP was doubled compared with the compound of Example 3 and Etrasimod.

SMILES	Colon length [cm]	Colon weight [g]	Colon weight/colon length [g/cm]	Ulcer area [mm^2]	General anatomical view of colon, from excellent to poor	Weight (Day 1) [g]	Weight (Day 2) [g]	Weight (Day 3) [g]	Weight (Day 4) [g]	Weight (Day 5) [g]	Weight (Day 6) [g]	Weight (Day 7) [g]	Weight (Day 8) [g]	Weight course compared with model group (SASP 360 mg/kg, Example 3 and Etrasimod 3 mg/kg, oral once a day)	Drug efficacy intensity (colon weight)
O=C(O)CCn1ccc2cc(OCc3ccc(C4CCCC4)c(C(F)(F)F)c3)cc(Cl)c21 [Compound of Example 3, 3-(7-chlorine-5-((4-cyclopentyl-3-(trifluoromethyl)benzyl)oxy)-1H-indole-1-yl)propionic acid]	13.66 ± 0.63	2.07 ± 0.17	0.15	53.87 ± 24.01	group using compound of Example 3>group using sulfasalazine>group using Etrasimod>group using Ozanimod	247 ± 0.55	224.6 ± 0.51	226.3 ± 0.85	233.6 ± 1.45	238.5 ± 1.57	245 ± 1.74	258.8 ± 1.61	267.9 ± 1.44	a certain tendency to inhibit the weight loss	group using the compound of Example 3 (3 mg/kg)>group using Etrasimod (3 mg/kg)>group using sulfasalazine (360 mg/kg)>model group>group using Ozanimod (10 mg/kg)
O=C(O)C[C@H]1CCc2c1[nH]c1ccc(OCc3ccc(C4CCCC4)c(C(F)(F)F)c3)cc21 [Etrasimod, reference compound]	13.56 ± 0.54	2.54 ± 0.25	0.19	177.97 ± 56.5	group using compound of Example 3>group using sulfasalazine>group using Etrasimod>group using Ozanimod	251.6 ± 0.5	225.5 ± 0.56	223.9 ± 0.94	221.8 ± 1.51	224.4 ± 1.73	230.1 ± 2.04	245.5 ± 1.85	255.8 ± 1.6		group using the compound of Example 3 (3 mg/kg)>group using Etrasimod (3 mg/kg)>group using sulfasalazine (360 mg/kg)>model group>group using Ozanimod (10 mg/kg)
